≈ marks a conversion by molar mass, not a printed value. Read-outs that look alike come from different tables or passages of the source.
Experiments:
[1] = test system: uninfected THP-1 macrophages; test: THP-1 cytotoxicity (ATPLite); details: for THP-1 LD50: uninfected THP-1 macrophages, ATP-dependent luminescence, 5 days, top concentration 50 μM
CYP2C19 = molecular target: T1, CYP2C19 (Homo sapiens, UniProt P33261); test: Inhibition of human liver microsomal P450s; type: in vitro ADME
T1 construct: from tissue; host or cells: human liver microsomes
T1 sequence (P33261 whole entry): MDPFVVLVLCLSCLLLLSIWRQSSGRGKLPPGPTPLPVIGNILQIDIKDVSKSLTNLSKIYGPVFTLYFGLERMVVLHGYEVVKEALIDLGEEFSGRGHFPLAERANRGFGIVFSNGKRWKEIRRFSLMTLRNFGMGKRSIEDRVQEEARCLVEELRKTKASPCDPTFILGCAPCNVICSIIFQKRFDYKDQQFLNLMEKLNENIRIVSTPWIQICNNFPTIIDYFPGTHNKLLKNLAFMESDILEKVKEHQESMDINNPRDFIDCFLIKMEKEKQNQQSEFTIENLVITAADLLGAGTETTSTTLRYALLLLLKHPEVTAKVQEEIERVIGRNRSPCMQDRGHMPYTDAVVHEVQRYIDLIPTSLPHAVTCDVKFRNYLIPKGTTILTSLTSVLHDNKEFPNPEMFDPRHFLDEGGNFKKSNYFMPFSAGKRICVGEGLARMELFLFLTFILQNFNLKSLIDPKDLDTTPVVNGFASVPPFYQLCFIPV
Excerpt: (§1) Table S8. Inhibition of human liver microsomal P450s. Inhibition constants (IC 50 values, µM) of
(§2) following substrates: CYP1A-ethoxyresorufin, CYP2C19- mephenytoin, CYP2C9-tolbutamide, CYP2D6-
(§3) dextromethorphan, CYP3A4-midazolam/testosterone.

CYP2D6 = molecular target: T2, CYP2D6 (Homo sapiens, UniProt P10635); test: Inhibition of human liver microsomal P450s; type: in vitro ADME
T2 construct: from tissue; host or cells: human liver microsomes
T2 sequence (P10635 whole entry): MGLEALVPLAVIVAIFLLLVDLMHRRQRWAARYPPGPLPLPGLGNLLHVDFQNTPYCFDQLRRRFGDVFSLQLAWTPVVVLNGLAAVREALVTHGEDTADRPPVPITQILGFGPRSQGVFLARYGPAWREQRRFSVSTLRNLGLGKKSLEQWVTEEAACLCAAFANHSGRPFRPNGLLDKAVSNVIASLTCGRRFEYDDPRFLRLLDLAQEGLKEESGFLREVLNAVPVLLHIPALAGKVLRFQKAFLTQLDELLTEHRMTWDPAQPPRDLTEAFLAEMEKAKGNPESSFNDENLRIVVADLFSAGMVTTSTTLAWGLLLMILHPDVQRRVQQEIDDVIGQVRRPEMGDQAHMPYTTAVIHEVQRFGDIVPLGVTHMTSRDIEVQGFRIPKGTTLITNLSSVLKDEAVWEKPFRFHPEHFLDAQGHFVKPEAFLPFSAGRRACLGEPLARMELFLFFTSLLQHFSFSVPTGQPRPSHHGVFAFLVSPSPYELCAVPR
Excerpt: as §1, §2, §3

CYP2C9 = molecular target: T3, CYP2C9 (Homo sapiens, UniProt P11712); test: Inhibition of human liver microsomal P450s; type: in vitro ADME
T3 construct: from tissue; host or cells: human liver microsomes
T3 sequence (P11712 whole entry): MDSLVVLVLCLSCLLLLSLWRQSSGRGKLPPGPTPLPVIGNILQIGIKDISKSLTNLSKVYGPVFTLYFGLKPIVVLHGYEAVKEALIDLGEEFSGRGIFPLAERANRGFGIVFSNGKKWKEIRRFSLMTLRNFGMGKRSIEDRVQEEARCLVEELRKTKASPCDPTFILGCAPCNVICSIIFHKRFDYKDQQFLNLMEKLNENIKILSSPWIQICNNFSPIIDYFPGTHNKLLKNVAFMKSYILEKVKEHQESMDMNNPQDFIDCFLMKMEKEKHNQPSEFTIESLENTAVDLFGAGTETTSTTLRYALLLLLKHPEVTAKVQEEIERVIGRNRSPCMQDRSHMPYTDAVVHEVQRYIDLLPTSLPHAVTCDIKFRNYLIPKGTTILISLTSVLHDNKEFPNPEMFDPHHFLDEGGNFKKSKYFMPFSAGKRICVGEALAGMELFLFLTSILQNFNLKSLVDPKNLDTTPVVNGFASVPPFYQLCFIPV
Excerpt: as §1, §2, §3

CYP1A = molecular target: T4, CYP1A (Homo sapiens, UniProt P05177); test: Inhibition of human liver microsomal P450s; type: in vitro ADME
T4 construct: from tissue; host or cells: human liver microsomes
T4 sequence (P05177 2-516 limits assumed): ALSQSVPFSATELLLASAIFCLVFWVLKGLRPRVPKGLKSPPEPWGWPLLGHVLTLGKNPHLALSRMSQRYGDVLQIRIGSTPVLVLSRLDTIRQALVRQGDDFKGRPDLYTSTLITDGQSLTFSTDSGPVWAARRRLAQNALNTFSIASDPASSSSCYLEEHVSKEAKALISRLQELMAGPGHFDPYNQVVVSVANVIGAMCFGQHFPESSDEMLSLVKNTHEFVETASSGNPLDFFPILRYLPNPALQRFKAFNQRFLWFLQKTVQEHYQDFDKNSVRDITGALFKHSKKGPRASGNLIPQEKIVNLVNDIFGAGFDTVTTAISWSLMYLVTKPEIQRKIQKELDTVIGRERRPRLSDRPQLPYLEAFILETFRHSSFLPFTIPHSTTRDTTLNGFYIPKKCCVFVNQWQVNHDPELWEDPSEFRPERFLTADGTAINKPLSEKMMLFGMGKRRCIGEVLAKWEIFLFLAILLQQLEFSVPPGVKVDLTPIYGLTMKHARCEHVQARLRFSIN
Excerpt: as §1, §2, §3

CYP3A4 = molecular target: T5, CYP3A4 (Homo sapiens, UniProt P08684); test: Inhibition of human liver microsomal P450s; type: in vitro ADME
T5 construct: from tissue; host or cells: human liver microsomes
T5 sequence (P08684 whole entry): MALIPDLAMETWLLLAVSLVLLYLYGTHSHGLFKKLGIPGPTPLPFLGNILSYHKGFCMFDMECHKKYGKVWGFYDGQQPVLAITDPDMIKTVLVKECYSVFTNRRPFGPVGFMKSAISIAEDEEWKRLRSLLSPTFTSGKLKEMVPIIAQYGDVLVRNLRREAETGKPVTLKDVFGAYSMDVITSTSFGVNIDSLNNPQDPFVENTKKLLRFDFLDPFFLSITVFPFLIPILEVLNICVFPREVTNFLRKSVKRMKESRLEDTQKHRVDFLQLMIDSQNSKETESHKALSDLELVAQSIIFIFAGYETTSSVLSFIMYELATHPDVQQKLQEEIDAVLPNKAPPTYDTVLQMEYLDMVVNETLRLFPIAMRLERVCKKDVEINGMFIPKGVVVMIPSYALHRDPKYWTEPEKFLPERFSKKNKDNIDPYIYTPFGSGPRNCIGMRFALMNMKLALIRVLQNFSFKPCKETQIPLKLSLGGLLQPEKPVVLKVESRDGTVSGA
Excerpt: as §1, §2, §3

Mtb (Erdman) = test: Extracellular Mtb (Erdman) growth on cholesterol-supplemented (0.01%) media, MABA; type: cell-based, Mycobacterium tuberculosis; details: Mycobacterium tuberculosis, ERDMAN, 168 h, MABA 1 week post-compound treatment, mean ± SD n = 3, read-out: mixed media IC50 (Erdman)
Mtb H37Rv [2] = test: Extracellular Mtb growth on cholesterol, MABA MIC99; type: cell-based, Mycobacterium tuberculosis; details: cholesterol as sole carbon source, 2 weeks post-compound treatment, read-out: MABA-MIC99 (W2) H37Rv, cholesterol
CYP125 [3] = molecular target: T6, CYP125 (Mycobacterium tuberculosis, UniProt P9WPP1); test: LC-MS substrate turnover assay (cholest-4-en-3-one); type: biochemical; details: for IC50: CYP125 0.5 μM, cholest-4-en-3-one 5 µM, LC-MS, read-out: CYP125A1 IC50; for Ki: estimated by Cheng-Prusoff, cholest-4-en-3-one Km CYP125 = 2.1 µM, read-out: CYP125A1 KI
T6 sequence (P9WPP1 whole entry): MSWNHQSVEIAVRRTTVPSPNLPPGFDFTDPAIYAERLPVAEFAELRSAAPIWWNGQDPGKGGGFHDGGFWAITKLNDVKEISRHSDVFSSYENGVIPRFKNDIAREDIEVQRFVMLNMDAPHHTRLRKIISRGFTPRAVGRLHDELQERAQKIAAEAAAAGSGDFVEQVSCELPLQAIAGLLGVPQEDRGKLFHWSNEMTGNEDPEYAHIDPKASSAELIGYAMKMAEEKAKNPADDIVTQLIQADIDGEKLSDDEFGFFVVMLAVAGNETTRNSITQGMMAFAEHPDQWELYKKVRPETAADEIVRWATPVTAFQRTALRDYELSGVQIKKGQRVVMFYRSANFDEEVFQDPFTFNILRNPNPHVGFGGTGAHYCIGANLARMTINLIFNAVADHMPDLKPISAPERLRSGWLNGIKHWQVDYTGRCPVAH

[4] = test system: Mtb H37Rv pATB45luc in THP-1 macrophages; test: microbe, parasite or virus in culture; type: cell-based; details: Mycobacterium tuberculosis, 120 h, 5 days post-compound treatment, mean ± SD n = 2, read-out: intracellular growth Mtb IC50
CYP125 [5] = molecular target: T6, CYP125; test: biochemical; type: binding; details: read-out: KD (μM) CYP125
Mtb CDC1551 [6] = test: Depletion of intracellular ATP, Mtb on glucose; details: read-out: ATP IC50 (W1) CDC1551, glucose media; glucose as sole carbon source; 1 week
Method: (Mtb) H37Rv or CDC1551 strains were grown in Middlebrook 7H9 broth medium (Difco) supplemented with 0.3 g/L casitone, 0.81 g/L NaCl, 0.05% (v/v) tyloxapol, and either 97 mg/L cholesterol, 4 g/L glucose, or 0.2% glycerol. For inhibitor assays, a 10-fold serial dilution of the test compounds was made in the desired medium in duplicate rows of a 96-well plate. Mtb cells were then added to all the wells at the final concentration of 1 × 10^4 CFU, and plates were incubated at 37 °C for up to 15 days. Minimum inhibitory concentrations (MIC99) were determined using the Microplate Alamar Blue Assay (MABA) on day 15.
BacTiter Glo reagent (Promega) was added to microtiter plates (1:10 dilution) and luminescence was recorded after 15 min of incubation at room temperature. […] Isoniazid or p-amino salicylic acid were used as positive control compounds for all experiments. Reported MIC and IC50 values are the mean of duplicate treatments.

Mtb CDC1551 [7] = test: Depletion of intracellular ATP (BacTiter Glo), Mtb on cholesterol; type: cell-based; details: Mycobacterium tuberculosis, cholesterol as sole carbon source
Mtb CDC1551 [8] = test: Extracellular Mtb growth on cholesterol, MABA MIC99; type: cell-based, Mycobacterium tuberculosis; details: Mycobacterium tuberculosis, CDC1551, 336 h; cholesterol as sole carbon source; 2 weeks post-compound treatment; read-out: MABA-MIC99 (W2) CDC1551, cholesterol
Mtb H37Rv [9] = test: Depletion of intracellular ATP (BacTiter Glo), Mtb on cholesterol; type: cell-based, Mycobacterium tuberculosis; details: cholesterol as sole carbon source
H37Rv Mtb = test: Extracellular Mtb growth, MABA MIC90 (drug susceptible strain); type: cell-based; details: Mycobacterium tuberculosis
[10] = test system: MDR-TB strain K26b00MR 113; test: microbe, parasite or virus in culture; type: cell-based, Mycobacterium tuberculosis; details: for MIC90: Mycobacterium tuberculosis
CYP125 [11] = molecular target: T6, CYP125; type: binding; details: compound 100 µM, P450 5 µM; high spin population; '-' = no HS maxima present
CYP142 [12] = molecular target: T7, CYP142 (Mycobacterium tuberculosis, UniProt P9WPL5)
T7 sequence (P9WPL5 whole entry): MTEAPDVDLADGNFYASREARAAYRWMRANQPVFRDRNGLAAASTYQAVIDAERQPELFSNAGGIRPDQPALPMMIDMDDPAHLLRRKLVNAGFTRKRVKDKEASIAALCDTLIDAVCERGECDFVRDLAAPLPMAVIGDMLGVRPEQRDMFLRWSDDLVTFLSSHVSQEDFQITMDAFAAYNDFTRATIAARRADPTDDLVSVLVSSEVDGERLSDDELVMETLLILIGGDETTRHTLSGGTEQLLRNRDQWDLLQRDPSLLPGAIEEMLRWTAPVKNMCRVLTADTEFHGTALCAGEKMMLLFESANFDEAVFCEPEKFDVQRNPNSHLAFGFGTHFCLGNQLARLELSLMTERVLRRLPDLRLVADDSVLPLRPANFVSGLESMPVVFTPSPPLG

CYP142 [13] = molecular target: T7, CYP142; details: compound 100 µM, P450 5 µM
[14] = CYP3A4 IC50 (midazolam), substrate midazolam (first value of cell)
[15] = CYP3A4 IC50 (testosterone), substrate testosterone (second value of cell)
[16] = Mycobacterium tuberculosis, H37RV, 336 h
[17] = CDC1551, 168 h, 1 week post-compound treatment, read-out: ATP-IC50 (W1) CDC1551, cholesterol
[18] = CDC1551, 336 h, 2 weeks post-compound treatment, read-out: ATP-IC50 (W2) CDC1551, cholesterol
[19] = Mycobacterium tuberculosis, H37RV, 168 h, 1 week post-compound treatment, read-out: ATP-IC50 (W1) H37Rv, cholesterol
[20] = Mycobacterium tuberculosis, H37RV, 336 h, 2 weeks post-compound treatment, read-out: ATP-IC50 (W2) H37Rv, cholesterol

In the case of O=C(Nc1ccc(Cc2ccncc2)cc1)[C@H](Cc1c[nH]c2ccccc12)NCc1ccccc1 [5d, (S)-2-(Benzylamino)-3-(1H-indol-3-yl)-N-(4-(pyridin-4-ylmethyl)phenyl)propanamide], the “THP-1 cytotoxicity in words” value ([1]; concentrations up to 50 μM) is reported as “weakly cytotoxic”, the “THP-1 LD50” value [1] is reported as 45 µM and the IC50 (CYP2C19) is reported as under 100 nM. For the same compound, the IC50 (CYP2D6) was 460 nM, the IC50 (CYP2C9) was 140 nM and the IC50 (CYP1A) was 110 nM. For the same compound, the IC50 (CYP3A4; [14]) was 520 nM, the IC50 (CYP3A4; [15]) was 1490 nM and the IC50 (Mtb (Erdman)) was 18000 ± 3000 nM. For the same compound, the MIC99 (Mtb H37Rv [2]; [16]) was 25 µM (≈ 11.5 µg/mL), the IC50 (CYP125 [3]) was 790 ± 90 nM and the Ki (CYP125 [3]) was 230 nM. The IC50 [4] was 2800 ± 200 nM, the Kd (CYP125 [5]) was 0.072 ± 0.026 µM and the IC50 (Mtb CDC1551 [6]) was 19000 nM. The IC50 (Mtb CDC1551 [7]; [17]) was 4700 nM, the IC50 (Mtb CDC1551 [7]; [18]) was 38000 nM and the MIC99 (Mtb CDC1551 [8]) was 25 µM (≈ 11.5 µg/mL). For the same compound, the IC50 (Mtb H37Rv [9]; [19]) was 4700 nM, the IC50 (Mtb H37Rv [9]; [20]) was 4700 nM and the IC50 (Mtb H37Rv [9]; 1 week post-compound treatment, read-out: ATP-IC50 (W1) H37Rv, cholesterol) was under 5000 nM.

With O=S(=O)(Nc1ccc(Cc2ccncc2)cc1)c1ccc(OC(F)(F)F)cc1 [5k, N-(4-(Pyridin-4-ylmethyl)phenyl)-4-(trifluoromethoxy)benzenesulfonamide] the “THP-1 LD50” value [1] was 32 µM, the IC50 (CYP2C19) was 3100 nM and the IC50 (CYP2D6) was 180 nM. For the same compound, the IC50 (CYP2C9) was 5270 nM, the IC50 (CYP1A) was 5950 nM and the IC50 (CYP3A4; [14]) was 260 nM. It also gave an IC50 (CYP3A4; [15]) of 1250 nM, an IC50 (Mtb (Erdman)) of 22000 ± 2000 nM and an MIC99 (Mtb H37Rv [2]; [16]) of 25 µM (≈ 10.2 µg/mL). The IC50 (CYP125 [3]) was 910 ± 220 nM, the Ki (CYP125 [3]) was 270 nM and the IC50 [4] was 13000 ± 180 nM. For the same compound, the Kd (CYP125 [5]) was 0.55 ± 0.12 µM, the IC50 (Mtb CDC1551 [6]) was 19000 nM and the IC50 (Mtb CDC1551 [7]; [17]) was 1200 nM. The IC50 (Mtb CDC1551 [7]; [18]) was 9400 nM, the MIC99 (Mtb CDC1551 [8]) was 25 µM (≈ 10.2 µg/mL) and the IC50 (Mtb H37Rv [9]; [20]) was 2300 nM.

Compound NNC(=O)c1ccncc1 [Isoniazid, isoniazid, reference compound] has an MIC99 (Mtb H37Rv [2]; [16]) of under 0.1 µM, an MIC99 (Mtb H37Rv [2]; listed as Inh.) of under 0.1 µM and an IC50 [4] of 100 ± 10 nM. For the same compound, the MIC90 (H37Rv Mtb; 168 h, MABA 1 week post-compound treatment, glucose-casitone (standard) media, read-out: MIC90 (W1) H37Rv) was 0.19 to 0.39 µM (≈ 0.0261 to 0.0535 µg/mL), the MIC90 (H37Rv Mtb; 336 h, MABA 2 weeks post-compound treatment, read-out: MIC90 (W2) H37Rv) was 0.39 µM (≈ 0.0535 µg/mL) and the IC50 (Mtb H37Rv [9]; [19]) was under 100 nM. For the same compound, the IC50 (Mtb H37Rv [9]; [20]) was under 100 nM, the “MIC90 (W1) MDR-TB” value ([10]; MABA 1 week post-compound treatment, K26b00MR 113) was 12.5 to 25 µM and the “fold higher value against MDR-TB than H37Rv” value ([10]; MABA, 1 and 2 weeks) was 50–150 fold. The MIC90 ([10]; 168 h, read-out: MIC90 (W1) MDR-TB, MABA 1 week post-compound treatment, K26b00MR 113) was 13 to 25 µM (≈ 1.78 to 3.43 µg/mL) and the MIC90 ([10]; 336 h, read-out: MIC90 (W2) MDR-TB, MABA 2 weeks post-compound treatment, K26b00MR 113) was 50 µM (≈ 6.86 µg/mL).

For N-Phenylpyridin-4-amine [2a], the “CYP125 Δλmax (nm) HS” value (CYP125 [11]) was 0 nm, the Kd (CYP142 [12]) was 1100 ± 200 nM and the Kd (CYP125 [5]) was 35 ± 5.8 µM. The “CYP142 Δλmax (nm)” value (CYP142 [13]) was 4 nm.
